Measurements as given in PubChem BioAssay (NCI).
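Values below derive from 48-hour exposures of cells grown in 96-well plates, with endpoints linearly interpolated between the two concentrations bracketing the appropriate inhibition level. TGI denotes the concentration required for complete inhibition of growth.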

Assays:
Test in all cases: NCI-60 cell line screen, 48 h
[1] = system: 786-0 renal
[2] = system: LOX IMVI melanoma
[3] = system: MDA-MB-231 breast
[4] = system: OVCAR-8 ovarian
[5] = system: CAKI-1 renal
[6] = system: HOP-62 NSCLC
[7] = system: SK-MEL-5 melanoma
[8] = system: K-562 leukemia
[9] = system: HCT-116 colon
[10] = system: A498 renal
[11] = system: HOP-92 NSCLC
[12] = system: HS 578T breast
[13] = system: TK-10 renal
[14] = system: KM12 colon
[15] = system: CCRF-CEM leukemia
[16] = system: M14 melanoma
[17] = system: OVCAR-5 ovarian
[18] = system: SK-MEL-2 melanoma
[19] = system: MOLT-4 leukemia
[20] = system: SW-620 colon
[21] = system: UACC-257 melanoma
[22] = system: MDA-MB-435
[23] = system: NCI-H460 lung
[24] = system: SF-295 CNS
[25] = system: RPMI-8226 leukemia
[26] = system: HT29 colon
[27] = system: OVCAR-4 ovarian
[28] = system: SF-539 CNS
[29] = system: MCF7 breast
[30] = system: RXF 393 renal
[31] = system: HCC-2998 colon
[32] = system: SK-OV-3 ovarian
[33] = system: HL-60(TB) leukemia
[34] = system: SK-MEL-28 melanoma
[35] = system: NCI-H522 lung
[36] = system: T-47D breast
[37] = system: ACHN renal
[38] = system: UO-31 renal
[39] = system: SR leukemia
[40] = system: U251 CNS
[41] = system: MDA-N
[42] = system: EKVX NSCLC
[43] = system: NCI-H23 lung
[44] = system: NCI/ADR-RES ovarian
[45] = system: DU-145 prostate
[46] = system: IGROV1 ovarian
[47] = system: OVCAR-3 ovarian
[48] = system: NCI-H226 lung
[49] = system: PC-3 prostate
[50] = system: HCT-15 colon
[51] = system: SF-268 CNS
[52] = system: COLO 205 colon
[53] = system: A549 NSCLC
[54] = system: SNB-75 CNS
[55] = system: MALME-3M melanoma
[56] = system: UACC-62 melanoma
[57] = system: SN12C renal
[58] = system: SNB-19 CNS

Which results are given for CC1=NN(c2nc(N)nc(/C(C#N)=C\C3COc4ccccc4C3=O)n2)C(C)(C)C1 (centres undefined)?
TGI [1]: > 100 µM; TGI [2]: > 100 µM; TGI [3]: > 100 µM; TGI [4]: > 100 µM; TGI [5]: > 100 µM; TGI [6]: > 100 µM; TGI [7]: > 100 µM; TGI [8]: > 100 µM; TGI [9]: 75 µM; TGI [10]: 63 µM; TGI [11]: > 100 µM; TGI [12]: 85 µM; TGI [13]: > 100 µM; TGI [14]: > 100 µM; TGI [15]: > 100 µM; TGI [16]: > 100 µM; TGI [17]: > 100 µM; TGI [18]: 42.3 µM; TGI [19]: 64 µM; TGI [20]: > 100 µM; TGI [21]: > 100 µM; TGI [22]: > 100 µM; TGI [23]: > 100 µM; TGI [24]: > 100 µM; TGI [25]: 54.8 µM; TGI [26]: 69 µM; TGI [27]: > 100 µM; TGI [28]: > 100 µM; TGI [29]: > 100 µM; TGI [30]: 64.4 µM; TGI [31]: > 100 µM; TGI [32]: 84.7 µM; TGI [33]: 5.2 µM; TGI [34]: > 100 µM; TGI [35]: > 100 µM; TGI [36]: 69.1 µM; TGI [37]: 93.7 µM; TGI [38]: 96.8 µM; TGI [39]: 46.1 µM; TGI [40]: > 100 µM; TGI [41]: 84.6 µM; TGI [42]: > 100 µM; TGI [43]: 90.5 µM; TGI [44]: 35.9 µM; TGI [45]: > 100 µM; TGI [46]: > 100 µM; TGI [47]: > 100 µM; TGI [48]: > 100 µM; TGI [49]: 77.7 µM; TGI [50]: > 100 µM; TGI [51]: > 100 µM

Cc1cc(C)c(OC(=O)Nc2cccc3ccccc23)c(-c2ccccc2)c1 was tested. Which TGI [1] did it give?
The TGI was > 100 µM.

And the TGI [2]?
The TGI was > 100 µM.

What about the TGI [3] of the same compound?
Its TGI is > 100 µM.

What about the TGI [4] of the same compound?
The TGI was > 100 µM.

What about the TGI [5] of the same compound?
Its TGI is 93 µM.

And the TGI [6]?
Its TGI is > 100 µM.

And the TGI [7]?
The TGI was 34.6 µM.

What about the TGI [8] of the same compound?
Its TGI is > 100 µM.

What about the TGI [9] of the same compound?
Its TGI is > 100 µM.

What about the TGI [11] of the same compound?
The TGI was 78.6 µM.

What about the TGI [12] of the same compound?
The TGI was > 100 µM.

And the TGI [13]?
The TGI was > 100 µM.

And the TGI [14]?
Its TGI is > 100 µM.

And the TGI [15]?
Its TGI is > 100 µM.

What about the TGI [16] of the same compound?
Its TGI is > 100 µM.

What about the TGI [17] of the same compound?
The TGI was > 100 µM.

What about the TGI [19] of the same compound?
Its TGI is 37.3 µM.

What about the TGI [20] of the same compound?
The TGI was > 100 µM.

And the TGI [22]?
Its TGI is 82.2 µM.

What about the TGI [23] of the same compound?
The TGI was > 100 µM.

What about the TGI [24] of the same compound?
Its TGI is > 100 µM.

And the TGI [25]?
Its TGI is > 100 µM.

What about the TGI [26] of the same compound?
Its TGI is > 100 µM.

And the TGI [27]?
Its TGI is > 100 µM.

And the TGI [28]?
The TGI was > 100 µM.

And the TGI [29]?
Its TGI is > 100 µM.

And the TGI [31]?
The TGI was 91.8 µM.

What about the TGI [52] of the same compound?
The TGI was > 100 µM.

What about the TGI [32] of the same compound?
The TGI was > 100 µM.

And the TGI [53]?
The TGI was > 100 µM.

What about the TGI [33] of the same compound?
The TGI was > 100 µM.

And the TGI [34]?
Its TGI is > 100 µM.

And the TGI [54]?
Its TGI is 47.4 µM.

What about the TGI [36] of the same compound?
Its TGI is > 100 µM.

What about the TGI [37] of the same compound?
The TGI was 94.9 µM.

What about the TGI [38] of the same compound?
The TGI was 26.8 µM.

What about the TGI [39] of the same compound?
Its TGI is > 100 µM.

What about the TGI [40] of the same compound?
The TGI was > 100 µM.

And the TGI [41]?
The TGI was > 100 µM.

What about the TGI [42] of the same compound?
The TGI was > 100 µM.

And the TGI [55]?
The TGI was > 100 µM.

And the TGI [56]?
The TGI was > 100 µM.

What about the TGI [57] of the same compound?
The TGI was > 100 µM.

What about the TGI [43] of the same compound?
Its TGI is > 100 µM.

What about the TGI [44] of the same compound?
Its TGI is > 100 µM.

What about the TGI [45] of the same compound?
Its TGI is > 100 µM.

What about the TGI [46] of the same compound?
The TGI was > 100 µM.

And the TGI [47]?
The TGI was > 100 µM.

And the TGI [48]?
The TGI was 58.4 µM.

What about the TGI [49] of the same compound?
Its TGI is > 100 µM.

What about the TGI [50] of the same compound?
Its TGI is > 100 µM.

What about the TGI [51] of the same compound?
Its TGI is 80.1 µM.

What does the source list for COc1ccc(C2C=C(c3ccccc3)Nc3nnnn32)cc1 (centres undefined)?
TGI [1]: 91.1 µM; TGI [2]: > 100 µM; TGI [3]: 90.5 µM; TGI [4]: > 100 µM; TGI [5]: > 100 µM; TGI [6]: 66.8 µM; TGI [7]: > 100 µM; TGI [8]: > 100 µM; TGI [9]: 29.3 µM; TGI [10]: > 100 µM; TGI [12]: > 100 µM; TGI [13]: 29.8 µM; TGI [14]: 34.8 µM; TGI [15]: > 100 µM; TGI [16]: > 100 µM; TGI [17]: > 100 µM; TGI [18]: > 100 µM; TGI [19]: > 100 µM; TGI [20]: > 100 µM; TGI [21]: > 100 µM; TGI [22]: > 100 µM; TGI [23]: > 100 µM; TGI [24]: 88.3 µM; TGI [25]: 80.2 µM; TGI [26]: 34.2 µM; TGI [28]: 53.1 µM; TGI [29]: 84.4 µM; TGI [30]: 50.9 µM; TGI [52]: > 100 µM; TGI [32]: 93 µM; TGI [53]: > 100 µM; TGI [33]: > 100 µM; TGI [58]: > 100 µM; TGI [35]: 57.7 µM; TGI [36]: 60.4 µM; TGI [37]: 60.3 µM; TGI [38]: > 100 µM; TGI [39]: > 100 µM; TGI [40]: 56.1 µM; TGI [41]: > 100 µM; TGI [56]: > 100 µM; TGI [57]: > 100 µM; TGI [43]: > 100 µM; TGI [44]: > 100 µM; TGI [45]: > 100 µM; TGI [46]: > 100 µM; TGI [47]: 77.8 µM; TGI [48]: > 100 µM; TGI [49]: > 100 µM; TGI [50]: > 100 µM; TGI [51]: > 100 µM
